Measurements: publication PMC9241976 (Chemical Science, 2022)

Tested on: MCF-7 cells
Test: Sulforhodamine B assay, cytostatic and cytotoxic activity
Format: cell-based, human
Details: LC50 versus GI50 of the same compound

**Q.** How did the “difference between GI50 and LC50” value turn out when polytheonamide B [Compound 5] was run?
**A.** 19 fold
